In assay [1] the test system is CYCLIN K. In words: CYCLIN K nuclear protein level: immunofluorescence/high content analysis in CAL-120 cells. The conditions noted are these: 24 h, nuclear CCNK staining, read-out: CYCLIN K degradation IF, DC50-[mol/l] (median). The class given is cell-based, human. As to the method: In the context of the present invention, the term “DC50 Cyclin K” refers to the DC50 values obtained according to the assay described in this section (7) herein below, i.e. the DC50 values for the degradation of Cyclin K.
(§1) CAL-120 human breast cancer cells (DSMZ ACC 459) are seeded in 1536-well microtiter plates (800 cells per well) containing 50 nanoL of compounds in Dose-Response. Control wells received DMSO or Reference Example 1. Plates are then incubated for 24 h at 37° C. in an humidified incubator and fixed with 4% PFA for 10 min. Then immunofluorescence (IF) against CYCLIN K (ThermoFisher Scientific CCNK Antibody #PA5-85020, rabbit, 1:200 dilution) is performed using standard IF protocols. Cells are then stained with Hoechst 33342 (Life Technologies, H-1399, 0.1 microg/ml) and imaged on an automated confocal microscopy system (e.g. Perkin Elmer Opera Phenix). Nuclear and cytoplasmic intensity as well as the nuclear/cytoplasmic intensity ratio is determined by automated image analysis using custom generated scripts (MetaXpress). Data is then transferred to Genedata Screener software, normalized to DMSO and control and DC50 values (degrading concentration to achieve 50% reduction of nuclear CCNK staining intensity relative to controls) are reported.

In assay [2] the target is T1, CDK12 (Homo sapiens, UniProt Q9NYV4).
T1 construct: endogenous in cells; host or cells: CAL-120 human breast cancer cells (DSMZ ACC 459)
The assay is described as follows: CDK12 nuclear protein level: immunofluorescence/high content analysis in CAL-120 cells. The class given is cell-based. As to conditions: for DC50: CAL-120 cells, 24 h, nuclear CDK12 staining, read-out: CDK12 degradation IF DC50-[mol/l] (median); for (IC50 CDK12 high ATP) to (Degradation DC50 CDK12) ratio: IC50 CDK12 hATP (Table 2) divided by DC50 CDK12 IF (Table 8). As to the method:
In the context of the present invention, the term “DC50 CDK12” refers to the DC50 values obtained according to the assay described in this section (6) herein below, i.e. the DC50 values for the degradation of CDK12.
as §1, with “CDK12 (CellSignalling CDK12” for “CYCLIN K (ThermoFisher Scientific CCNK”, “#11973,” for “#PA5-85020,”, “1:100” for “1:200”, “CDK12” for “CCNK”

For assay [3], the system named is CAL-120 human breast adenocarcinoma cells. The assay is described as follows: Proliferation assay CAL-120 (crystal violet). The class given is cell-based. As to conditions: 96 h, CAL-120 cells, 4 days, read-out: Prolif-CAL-120_ IC50-[mol/l] (median). As to the method: Human tumour cells were originally obtained from the American Type Culture Collection (ATCC), or from the Deutsche Sammlung von Mikroorganismen und Zellkulturen (DSMZ, German Collection of Microorganisms and Cell Cultures). Cultivated tumour cells (CAL-120, human breast adenocarcinoma cells, DSMZ ACC-459; MDA-MB-231, human breast cancer cells, ATCC HTB-26) were plated at a density of 4,000 cells/well in a 96-well multititer plate in 200 microL of their respective growth medium supplemented 10% fetal calf serum. After 24 hours, the cells of one plate (zero-point plate) were stained with crystal violet (see below), while the medium of the other plates was supplemented with the test substances in various concentrations (0 micromol/L, as well as in the range of 0.01-10 micromol/L; the final concentration of the solvent dimethyl sulfoxide was adjusted to 0.1%) using a Tecan HP D300 Digital Dispenser. The cells were incubated for 4 days in the presence of test substances. Cell proliferation was determined by staining the cells with crystal violet: the cells were fixed by adding 20 microL/measuring point of an 11% glutaric aldehyde solution for 15 minutes at room temperature. After three washing cycles of the fixed cells with water, the plates were dried at room temperature. The cells were stained by adding 100 microL/measuring point of a 0.1% crystal violet solution (pH 3.0). After three washing cycles of the stained cells with water, the plates were dried at room temperature. The dye was dissolved by adding 100 microL/measuring point of a 10% acetic acid solution. The extinction was determined by photometry at a wavelength of 595 nm. The change of cell number, in percent, was calculated by normalization of the measured values to the extinction values of the zero-point plate (=0%) and the extinction of the untreated (0 μM) cells (=100%). The IC50 values (inhibitory concentration at 50% of maximal effect) were determined by means of a 4 parameter fit.

Assay [4] has as its system BRCA1 mRNA expression in MDA-MB-231 cells. In words: qRT-PCR assay: inhibition of BRCA1 mRNA expression in MDA-MB-231 cells. The class given is cell-based. The conditions noted are these: Homo sapiens, 24 h exposure, normalised to GAPDH, read-out: RTqPCR-MDA-MB-231 IC50 [mol/l] BRCA1 (median). On the procedure: Tissue cultured human MDA-MB-231 human breast cancer cells were plated in 500 microL per well at 200,000 cells/well in a 24 well microtiter plate. After 24 h, the cells were exposed continuously for 24 h to test substances (substances were added with Tecan HP D300 Dispenser). RNA was prepared using Qiagen RNeasy MiniKit (#74106), RNA was quantified using a NanoDrop Equipment, and 600 nano gamms of RNA was converted to cDNA using a SuperScript VILO kit (Thermofisher #11755050) followed by qPCR amplification. BRCA1 and ATR gene expression was measured by RT-qPCR and normalised to GAPDH housekeeping gene expression. qPCR primer sets have been purchased from Thermo Fisher Scientific/Applied Biosystems: BRCA1, #Hs 01556193; ATR, #Hs 00992123; GAPDH, #Hs 03929097.
Background: Real-time PCR tracks product formation cycle by cycle.

T1 sequence (Q9NYV4 whole entry): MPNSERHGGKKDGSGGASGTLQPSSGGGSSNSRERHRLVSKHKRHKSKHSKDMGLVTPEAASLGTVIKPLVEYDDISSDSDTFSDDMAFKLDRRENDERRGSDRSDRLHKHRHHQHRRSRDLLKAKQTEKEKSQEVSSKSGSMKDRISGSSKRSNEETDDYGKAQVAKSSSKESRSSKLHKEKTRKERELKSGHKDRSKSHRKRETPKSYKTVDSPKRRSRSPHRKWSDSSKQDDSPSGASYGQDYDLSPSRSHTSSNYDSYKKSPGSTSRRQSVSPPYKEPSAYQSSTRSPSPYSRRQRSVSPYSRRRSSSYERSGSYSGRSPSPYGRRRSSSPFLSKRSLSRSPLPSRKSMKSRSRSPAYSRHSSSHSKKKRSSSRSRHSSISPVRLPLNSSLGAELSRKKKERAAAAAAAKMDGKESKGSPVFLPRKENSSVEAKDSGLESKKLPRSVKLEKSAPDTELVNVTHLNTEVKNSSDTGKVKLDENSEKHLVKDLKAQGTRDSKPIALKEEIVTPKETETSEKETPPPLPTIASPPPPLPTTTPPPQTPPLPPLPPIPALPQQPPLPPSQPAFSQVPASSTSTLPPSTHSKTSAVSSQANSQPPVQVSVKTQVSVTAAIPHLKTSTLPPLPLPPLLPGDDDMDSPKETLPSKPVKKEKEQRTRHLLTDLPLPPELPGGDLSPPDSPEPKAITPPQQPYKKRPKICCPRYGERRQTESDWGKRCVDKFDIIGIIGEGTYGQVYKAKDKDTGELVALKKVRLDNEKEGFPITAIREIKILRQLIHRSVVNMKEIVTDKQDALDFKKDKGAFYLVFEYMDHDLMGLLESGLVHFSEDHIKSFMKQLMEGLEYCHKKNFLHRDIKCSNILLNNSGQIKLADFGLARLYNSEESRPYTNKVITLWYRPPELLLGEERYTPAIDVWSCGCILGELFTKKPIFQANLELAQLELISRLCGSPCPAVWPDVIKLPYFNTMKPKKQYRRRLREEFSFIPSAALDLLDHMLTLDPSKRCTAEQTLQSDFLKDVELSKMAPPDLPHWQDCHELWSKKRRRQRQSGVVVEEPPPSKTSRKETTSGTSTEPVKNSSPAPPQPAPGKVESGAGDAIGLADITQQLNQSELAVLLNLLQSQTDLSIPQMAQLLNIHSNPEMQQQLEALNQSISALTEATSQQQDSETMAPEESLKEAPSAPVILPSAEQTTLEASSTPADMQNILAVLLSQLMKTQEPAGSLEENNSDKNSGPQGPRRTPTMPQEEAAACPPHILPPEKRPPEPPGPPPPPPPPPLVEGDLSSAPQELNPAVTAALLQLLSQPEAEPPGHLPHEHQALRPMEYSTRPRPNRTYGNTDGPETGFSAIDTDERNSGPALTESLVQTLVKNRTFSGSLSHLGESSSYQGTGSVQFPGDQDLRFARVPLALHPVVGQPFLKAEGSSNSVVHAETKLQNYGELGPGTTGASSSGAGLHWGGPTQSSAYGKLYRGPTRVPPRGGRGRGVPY
T1 sequence (O75909 whole entry partner): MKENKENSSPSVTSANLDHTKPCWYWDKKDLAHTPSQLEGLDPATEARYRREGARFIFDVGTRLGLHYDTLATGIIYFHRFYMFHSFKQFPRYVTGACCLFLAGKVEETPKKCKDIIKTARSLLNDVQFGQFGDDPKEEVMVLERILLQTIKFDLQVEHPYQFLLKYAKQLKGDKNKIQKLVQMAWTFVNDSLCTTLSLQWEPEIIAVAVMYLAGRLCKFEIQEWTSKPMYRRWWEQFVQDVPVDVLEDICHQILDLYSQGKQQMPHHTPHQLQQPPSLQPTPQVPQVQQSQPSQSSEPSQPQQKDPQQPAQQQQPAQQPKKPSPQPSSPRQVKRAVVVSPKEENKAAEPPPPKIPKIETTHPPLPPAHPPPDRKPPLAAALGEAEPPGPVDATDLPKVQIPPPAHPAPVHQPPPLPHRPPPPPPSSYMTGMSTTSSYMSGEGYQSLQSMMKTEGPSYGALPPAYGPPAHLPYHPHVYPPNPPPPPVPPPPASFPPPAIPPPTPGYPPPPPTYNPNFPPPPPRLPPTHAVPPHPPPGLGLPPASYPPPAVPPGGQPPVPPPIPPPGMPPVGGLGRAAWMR

Regarding `C[C@@H]1CN(c2nc(NCc3nc4ccccc4[nH]3)c3ncc(C(F)(F)F)n3n2)C[C@H](C)N1.O=CO` [Example 24, N-[(1H-benzimidazol-2-yl)methyl]-2-[rel-(3R,5S)-3,5-dimethylpiperazin-1-yl]-7-(trifluoromethyl)imidazo[2,1-f][1,2,4]triazin-4-amine Formate (1/1)], the DC50 in assay [1] was 0.0613 nM; in assay [2], 0.274 nM. Moreover, the “(IC50 CDK12 high ATP) to (Degradation DC50 CDK12) ratio” value in assay [2] turned out to be 2691. Besides, the figures for the IC50 in assay [3] and in assay [4] were 1.2 nM and 1.1 nM, respectively.
On the same counts, the results for `CN1CCN(c2nc(NCc3nc4ccccc4[nH]3)c3ncc(C(F)(F)F)n3n2)CC1` [Example 25, N-[(1H-benzimidazol-2-yl)methyl]-2-(4-methylpiperazin-1-yl)-7-(trifluoromethyl)imidazo[2,1-f][1,2,4]triazin-4-amine] are 1.66 nM, 3.55 nM, 3050, 12.3 nM and 8.65 nM.
On the same counts, the results for `FC(F)(F)c1cnc2c(NCc3nc4ccccc4[nH]3)nc(N3CCOCC3)nn12` [Example 26, N-[(1H-benzimidazol-2-yl)methyl]-2-(morpholin-4-yl)-7-(trifluoromethyl)imidazo[2,1-f][1,2,4]triazin-4-amine] are 0.552 nM, 4.79 nM, 36, 7.11 nM and 3.64 nM.
For `Fc1ccc2[nH]c(CNc3nc(N4CCOCC4)nn4c(C(F)(F)F)cnc34)nc2c1F` [Example 27, N-[(4,5-difluoro-1H-benzimidazol-2-yl)methyl]-2-(morpholin-4-yl)-7-(trifluoromethyl)imidazo[2,1-f][1,2,4]triazin-4-amine], the DC50 in assay [1] is 3.45 nM; in assay [2], 1.1 nM. For the same compound, the “(IC50 CDK12 high ATP) to (Degradation DC50 CDK12) ratio” value in assay [2] is listed as 10. The IC50 in assay [3] worked out at 2.01 nM; in assay [4], 1.05 nM.
On the same counts, the results for `CN1CCN(c2nc(NCc3nc4c(F)c(F)ccc4[nH]3)c3ncc(C(F)(F)F)n3n2)CC1` [Example 28, N-[(4,5-difluoro-1H-benzimidazol-2-yl)methyl]-2-(4-methylpiperazin-1-yl)-7-(trifluoromethyl)imidazo[2,1-f][1,2,4]triazin-4-amine] are 0.363 nM, 0.58 nM, 2887, 1.99 nM and 0.242 nM.
In the same order, the values of `C[C@@H]1CN(c2nc(NCc3nc4c(F)c(F)ccc4[nH]3)c3ncc(C(F)(F)F)n3n2)C[C@H](C)N1` [Example 29, N-[(4,5-difluoro-1H-benzimidazol-2-yl)methyl]-2-[rel-(3R,5S)-3,5-dimethylpiperazin-1-yl]-7-(trifluoromethyl)imidazo[2,1-f][1,2,4]triazin-4-amine] are 0.267 nM, 0.229 nM, 177, 0.536 nM and 1.05 nM.

Values taken from patent publication US20230106032A1, “IMIDAZOTRIAZINES ACTING ON CANCER VIA INHIBITION OF CDK12” (Bayer Aktiengesellschaft, priority 2020, published 2023).
